What all share (assay type): biochemical
One assay concerns the target DPP-IX (Homo sapiens (Human), UniProt Q86TI2). The experiment in a line: Measurement of DPP-IX inhibitory activity (Gly-Pro-AFC). The note with it: 100 μM Gly-Pro-AFC, 50 mM HEPES pH 7.5, room temperature.
The next assay concerns the target DPP-II (Homo sapiens (Human), UniProt Q9UHL4). Kind of assay: Measurement of DPP-II inhibitory activity (Gly-Pro-AFC). The note with it: 100 μM Gly-Pro-AFC, 50 mM acetic acid pH 4.5, room temperature.
The next assay deals with DPP-VIII (Homo sapiens (Human), UniProt Q6V1X1). Kind of assay: Measurement of DPP-VIII inhibitory activity (Gly-Pro-AFC). The conditions noted are these: 100 μM Gly-Pro-AFC, 50 mM HEPES pH 7.5, room temperature.
In assay [1] the target is Dipeptidyl peptidase-IV (DPP-IV) (Homo sapiens (Human), UniProt P27487). The experiment in a line: Assay of DPP-IV inhibitory activity (fluorescent substrate Ac-Gly-Pro-AFC). The note with it: DPP-IV 7.1 nM, 100 μM Ac-Gly-Pro-AFC, 25° C., 50 mM HEPES pH 7.4, 1 hour.

The structures appear in SMILES notation. Counter-ions that a name gives are not always drawn. Bounds are passed on as bounds.

Chain of DPP-VIII (Q6V1X1 whole entry, species assumed): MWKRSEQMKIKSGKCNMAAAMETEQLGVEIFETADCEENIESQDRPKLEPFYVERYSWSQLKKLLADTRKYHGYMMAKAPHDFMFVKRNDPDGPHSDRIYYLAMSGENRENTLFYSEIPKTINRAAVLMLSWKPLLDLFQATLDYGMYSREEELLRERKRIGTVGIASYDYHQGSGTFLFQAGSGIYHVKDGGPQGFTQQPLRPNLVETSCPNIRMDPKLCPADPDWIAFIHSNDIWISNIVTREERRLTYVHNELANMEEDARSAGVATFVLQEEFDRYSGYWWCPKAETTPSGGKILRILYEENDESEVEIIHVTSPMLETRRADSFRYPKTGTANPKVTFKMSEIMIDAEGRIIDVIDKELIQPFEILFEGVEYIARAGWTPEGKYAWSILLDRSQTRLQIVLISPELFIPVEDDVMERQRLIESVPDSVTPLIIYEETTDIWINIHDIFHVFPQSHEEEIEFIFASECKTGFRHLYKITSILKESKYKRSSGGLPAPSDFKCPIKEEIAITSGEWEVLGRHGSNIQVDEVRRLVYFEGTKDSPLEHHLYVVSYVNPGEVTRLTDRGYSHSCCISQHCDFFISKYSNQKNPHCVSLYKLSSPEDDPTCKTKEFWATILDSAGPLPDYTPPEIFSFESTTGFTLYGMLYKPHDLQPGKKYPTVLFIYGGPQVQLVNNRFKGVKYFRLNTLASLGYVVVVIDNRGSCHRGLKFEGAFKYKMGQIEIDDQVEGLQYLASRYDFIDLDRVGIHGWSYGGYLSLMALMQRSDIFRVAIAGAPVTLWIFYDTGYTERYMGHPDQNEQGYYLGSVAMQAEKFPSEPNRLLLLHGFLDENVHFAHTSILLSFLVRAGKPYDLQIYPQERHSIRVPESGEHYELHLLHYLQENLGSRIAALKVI
Chain of DPP-IX (Q86TI2 whole entry, species assumed): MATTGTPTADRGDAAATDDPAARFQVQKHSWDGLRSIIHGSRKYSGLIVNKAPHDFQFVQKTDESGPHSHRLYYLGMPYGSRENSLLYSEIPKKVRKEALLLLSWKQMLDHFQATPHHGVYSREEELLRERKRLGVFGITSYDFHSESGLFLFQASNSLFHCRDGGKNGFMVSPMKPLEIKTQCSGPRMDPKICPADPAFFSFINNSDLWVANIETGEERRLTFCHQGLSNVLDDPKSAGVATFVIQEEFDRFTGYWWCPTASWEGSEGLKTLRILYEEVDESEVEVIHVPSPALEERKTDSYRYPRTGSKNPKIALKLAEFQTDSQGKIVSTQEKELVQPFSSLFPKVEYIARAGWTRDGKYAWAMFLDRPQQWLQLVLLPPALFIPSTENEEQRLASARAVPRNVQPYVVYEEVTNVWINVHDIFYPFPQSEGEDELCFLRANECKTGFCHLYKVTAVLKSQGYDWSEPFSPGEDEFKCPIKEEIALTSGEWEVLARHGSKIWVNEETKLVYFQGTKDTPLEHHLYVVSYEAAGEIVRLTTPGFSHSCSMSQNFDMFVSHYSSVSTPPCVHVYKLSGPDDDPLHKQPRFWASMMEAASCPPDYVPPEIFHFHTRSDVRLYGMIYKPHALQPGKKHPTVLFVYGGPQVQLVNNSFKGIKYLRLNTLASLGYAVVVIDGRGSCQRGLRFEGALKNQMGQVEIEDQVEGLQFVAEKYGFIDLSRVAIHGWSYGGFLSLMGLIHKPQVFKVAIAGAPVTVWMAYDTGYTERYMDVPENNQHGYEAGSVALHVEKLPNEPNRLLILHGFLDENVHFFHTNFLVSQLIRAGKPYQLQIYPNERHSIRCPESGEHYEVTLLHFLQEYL
Chain of Dipeptidyl peptidase-IV (DPP-IV) (P27487 whole entry): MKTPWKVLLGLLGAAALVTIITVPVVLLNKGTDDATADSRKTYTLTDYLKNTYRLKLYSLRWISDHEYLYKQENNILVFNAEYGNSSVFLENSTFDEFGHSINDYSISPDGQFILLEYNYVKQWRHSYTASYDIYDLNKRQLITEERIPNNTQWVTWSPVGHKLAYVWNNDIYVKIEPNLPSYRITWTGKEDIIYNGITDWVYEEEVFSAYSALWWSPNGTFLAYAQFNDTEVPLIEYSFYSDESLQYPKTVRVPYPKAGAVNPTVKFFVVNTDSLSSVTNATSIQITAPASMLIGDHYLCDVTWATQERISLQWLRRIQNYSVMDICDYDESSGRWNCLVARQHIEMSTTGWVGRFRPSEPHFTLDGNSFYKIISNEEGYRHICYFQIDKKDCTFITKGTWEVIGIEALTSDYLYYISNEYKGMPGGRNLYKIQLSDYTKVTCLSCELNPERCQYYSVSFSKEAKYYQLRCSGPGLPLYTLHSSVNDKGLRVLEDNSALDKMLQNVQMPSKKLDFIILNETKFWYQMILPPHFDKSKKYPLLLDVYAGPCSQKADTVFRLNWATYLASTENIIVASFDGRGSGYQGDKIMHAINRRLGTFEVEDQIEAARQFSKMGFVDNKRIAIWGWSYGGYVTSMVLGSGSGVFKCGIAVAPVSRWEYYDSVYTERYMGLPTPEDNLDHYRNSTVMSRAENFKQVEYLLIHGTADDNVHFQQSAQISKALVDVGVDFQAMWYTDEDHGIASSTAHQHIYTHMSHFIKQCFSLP

A word on the IC50: it is the concentration that inhibits the measured activity by half. Lower therefore signals greater potency in that assay. `N[C@@H](CC(=O)N1CCc2c(nc(C(F)(F)F)nc2C(F)(F)F)C1)CN1C(=O)CCC(F)(F)[C@@H]1O` [Example 2, 1-[(2S)-amino-4-(2,4-bis-trifluoromethyl-5,8-dihydro-6H-pyrido[3,4-d]pyrimidin-7-yl)-4-oxo-butyl]-5,5-difluoro-(6S)-hydroxy-piperidin-2-one hydrochloride] returned an IC50 at DPP-IX above 400 µM.
In the case of `N[C@@H](CC(=O)N1CCc2c(nc(C3CCC3)nc2C(F)(F)F)C1)CN1C(=O)CCC(F)(F)C1O` (stereo partly drawn) [Example 5, 1-[(S)-2-amino-4-(2-cyclobutyl-4-trifluoromethyl-5,8-dihydro-6H-pyrido[3,4-d]pyrimidin-7-yl)-4-oxo-butyl]-5,5-difluoro-6-hydroxy-piperidin-2-one hydrochloride], the IC50 was above 161 µM on DPP-II, above 400 µM against DPP-VIII and above 400 µM against DPP-IX.
`N[C@@H](CC(=O)N1CCc2c(nc(-c3ccncc3)nc2C(F)(F)F)C1)CN1C(=O)CCC(F)(F)[C@@H]1O` [Example 6, 1-[(S)-2-amino-4-oxo-4-(2-pyridin-4-yl-4-trifluoromethyl-5,8-dihydro-6H-pyrido[3,4-d]pyrimidin-7-yl)-butyl]-5,5-difluoro-6-hydroxy-piperidin-2-one]: the IC50 was above 70 µM at DPP-II, above 127 µM at DPP-VIII and above 100 µM against DPP-IX.
For `N[C@@H](CC(=O)N1CCc2c(nc(-c3ccco3)nc2C(F)(F)F)C1)CN1C(=O)CCC(F)(F)[C@@H]1O` [Example 8, 1-[(S)-2-amino-4-(2-furan-2-yl-4-trifluoromethyl-5,8-dihydro-6H-pyrido[3,4-d]pyrimidin-7-yl)-butyl]-4-oxo-butyl]-5,5-difluoro-6-hydroxy-piperidin-2-one hydrochloride] the same measures were above 80 µM, above 400 µM and above 130 µM.
For `COCCc1nc2c(c(C(F)(F)F)n1)CCN(C(=O)C[C@H](N)CN1C(=O)CCC(F)(F)[C@@H]1O)C2` [Example 10, 1-{(S)-2-amino-4-[2-(2-methoxy-ethyl)-4-trifluoromethyl-5,8-dihydro-6H-pyrido[3,4-d]pyrimidin-7-yl]-4-oxo-butyl}-5,5-difluoro-6-hydroxy-piperidin-2-one hydrochloride] the same measures were above 400 µM, above 400 µM and above 210 µM.
`CC1CC(=O)N(C[C@@H](N)CC(=O)N2CCc3c(nc(C(C)(C)C)nc3C(F)(F)F)C2)C1=O` (stereo partly drawn) [Example 22, 1-[(S)-2-amino-4-(2-t-butyl-4-trifluoromethyl-5,8-dihydro-6H-pyrido[3,4-d]pyrimidin-7-yl)-4-oxo-butyl]-3-methyl-pyrrolidine-2,6-dione hydrochloride] registered an IC50 in assay [1] above 2.5 µM.
